From US8067445B2, “N,N-disubstituted aminoalkylbiphenyl antagonists of prostaglandin D2 receptors” (Panmira Pharmaceuticals, LLC, priority 2008, dated 2011)

What was measured:
human DP2 receptor = target: T1, human DP2 receptor (Homo sapiens, UniProt Q9Y5Y4); test: DP2/CRTH2 radioligand binding assay ([3H]PGD2); details: [3H]PGD2 binding, membranes of HEK293 cells expressing human DP2; read-out: hDP2
T1 construct: expressed in transfected cells
T1 sequence (Q9Y5Y4 1-395): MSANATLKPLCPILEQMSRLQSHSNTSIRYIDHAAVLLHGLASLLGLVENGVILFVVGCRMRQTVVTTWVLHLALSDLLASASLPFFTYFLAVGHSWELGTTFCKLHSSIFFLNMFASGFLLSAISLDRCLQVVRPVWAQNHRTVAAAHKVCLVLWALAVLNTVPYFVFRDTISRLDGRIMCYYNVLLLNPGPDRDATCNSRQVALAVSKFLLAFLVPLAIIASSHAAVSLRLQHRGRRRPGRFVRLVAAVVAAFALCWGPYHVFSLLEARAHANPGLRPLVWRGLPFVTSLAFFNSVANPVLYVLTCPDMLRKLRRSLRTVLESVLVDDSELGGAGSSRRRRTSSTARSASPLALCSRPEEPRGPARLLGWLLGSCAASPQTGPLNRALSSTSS
Summary of the method: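 Membranes from HEK293 cells stably expressing recombinant human DP2 incubated 60 min at room temperature with 1 nM [3H]PGD2 and compound in pH 7.4 Hepes/MnCl2/EDTA buffer, ± 0.2% human serum albumin. Bound radioactivity measured after filtration; non-specific binding defined with 10 μM PGD2. IC50 from titration curves.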

[1] = target: T2, recombinant human CRTH2 receptor (Homo sapiens, UniProt Q9Y5Y4); test: GTPγS binding assay; type: biochemical; details: +HSA (0.2% human serum albumin), 80 nM PGD2, CHO cell membranes; read-out: hDP2 GTPγS μM (+HSA)
T2 construct: expressed in transfected cells
T2 sequence (Q9Y5Y4 1-395): T1 sequence (Q9Y5Y4 1-395)
Procedure: The ability of a compound to inhibit binding of GTP to DP2 is assessed via a membrane GTPγS assay. CHO cells stably expressing the recombinant human CRTH2 receptor are resuspended in 10 mM Hepes, 7.4 containing 1 mM DTT, lysed and centrifuged at 75,000×g to pellet the membranes. The membranes are resuspended in 10 mM Hepes, 7.4 containing 1 mM DTT and 10% glycerol. […] The reactions are terminated by rapid filtration through Whatman GF/B glass fibre filter plates. The filter plates are washed 3 times with 1 ml cold Assay Buffer and dried. Scintillant is then added to the plates and the radioactivity retained on the filters is determined on a Packard TopCount (Perkin Elmer). Specific binding is determined as total radioactive binding minus non-specific binding in the absence of the ligand (80 nM PGD2). IC50s were determined using Graphpad prism analysis of drug titration curves.

human DP1 receptor = target: T3, human DP1 receptor (Homo sapiens, UniProt Q13258); test: DP1 radioligand binding assay ([3H]BWA868C, platelet membranes); details: [3H]BWA868C binding, human platelet membranes; read-out: hDP1
T3 construct: tissue Biological Specialty Corporation; host or cells: human platelet membranes
T3 sequence (Q13258 1-359): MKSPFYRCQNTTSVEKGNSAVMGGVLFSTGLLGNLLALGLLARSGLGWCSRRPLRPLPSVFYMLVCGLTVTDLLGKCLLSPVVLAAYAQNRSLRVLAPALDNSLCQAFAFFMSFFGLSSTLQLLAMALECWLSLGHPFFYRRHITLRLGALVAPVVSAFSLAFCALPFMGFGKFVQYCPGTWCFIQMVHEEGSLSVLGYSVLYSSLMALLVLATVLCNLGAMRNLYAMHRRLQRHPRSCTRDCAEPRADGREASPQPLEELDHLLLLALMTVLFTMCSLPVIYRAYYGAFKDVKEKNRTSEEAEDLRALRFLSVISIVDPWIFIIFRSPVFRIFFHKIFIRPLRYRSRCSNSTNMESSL
Summary of the method: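 Human platelet membranes (20 μg protein/well) incubated 60 min at room temperature with 2 nM [3H]BWA868C and compound in 50 mM Hepes, 10 mM MnCl2, 1 mM EDTA, pH 7.4, ± 0.2% human serum albumin. Bound radioactivity measured after filtration; nonspecific binding defined with 10 μM BWA868C; IC50 from titration curves.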

Row | IC50 (human DP2 receptor) [nM] | IC50 [1] [µM] | IC50 (human DP1 receptor) [nM] | SMILES
1 | < 300 | < 0.3 | 1000 to 30000 | COc1ccc(CC(=O)O)cc1-c1ccc(C(F)(F)F)cc1CN(C(C)=O)C1Cc2ccccc2C1 [Compound 1-17, {2′-[(Acetyl-indan-2-yl-amino)-methyl]-6-methoxy-4′-trifluoromethyl-biphenyl-3-yl}-acetic acid]
2 | < 300 | < 0.3 | 1000 to 30000 | COc1ccc(CC(=O)O)cc1-c1ccc(C(F)(F)F)cc1CN(CCc1ccccc1)C(C)=O [Compound 1-20, {2′-[(Acetyl-phenethyl-amino)-methyl]-6-methoxy-4′-trifluoromethyl-biphenyl-3-yl}-acetic acid]
3 | < 300 | < 0.3 | 1000 to 30000 | CCN(Cc1cc(C(F)(F)F)ccc1-c1cc(CC(=O)O)ccc1OC)/C(=N/C#N)NCc1ccccc1 [Compound 1-111, [2′-(N′-Benzyl-N″-cyano-N-ethyl-guanidinomethyl)-6-methoxy-4′-trifluoromethyl-biphenyl-3-yl]-acetic acid]
4 | < 300 | 0.3 to 1 | 300 to 1000 | CCN(Cc1cc(C(F)(F)F)ccc1-c1ccc(Cl)c(CC(=O)O)c1)C(=O)OCc1ccccc1 [Compound 1-125, {2′-[(Benzyloxycarbonyl-ethyl-amino)-methyl]-4-chloro-4′-trifluoromethyl-biphenyl-3-yl}-acetic acid]
5 | < 300 | 0.3 to 1 | 1000 to 30000 | COc1ccc(CC(=O)O)cc1-c1ccc(C(F)(F)F)cc1CN(CCO)C(C)=O [Compound 1-5, (2′-{[Acetyl-(2-hydroxy-ethyl)-amino]-methyl}-6-methoxy-4′-trifluoromethyl-biphenyl-3-yl)-acetic acid]
6 | 300 to 1000 | 0.3 to 1 | 1000 to 30000 | COc1ccc(CC(=O)O)cc1-c1ccc(C(F)(F)F)cc1CN(CCN(C)C)C(C)=O [Compound 1-7, (2′-{[Acetyl-(2-dimethylamino-ethyl)-amino]-methyl}-6-methoxy-4′-trifluoromethyl-biphenyl-3-yl)-acetic acid]
7 | < 300 | < 0.3 | 1000 to 30000 | COc1ccc(CC(=O)O)cc1-c1ccc(C(F)(F)F)cc1CN(Cc1ccccc1)C(C)=O [Compound 1-19, {2′-[(Acetyl-benzyl-amino)-methyl]-6-methoxy-4′-trifluoromethyl-biphenyl-3-yl}-acetic acid]
8 | < 300 | 0.3 to 1 | 300 to 1000 | CCN(Cc1cccc(OC)c1-c1cccc(CC(=O)O)c1)C(=O)OCc1cc(F)cc(F)c1 [Compound 1-123, (2′-{[(3,5-Difluoro-benzyloxycarbonyl)-ethyl-amino]-methyl}-6′-methoxy-biphenyl-3-yl)-acetic acid]
9 | < 300 | 1 to 30 | 300 to 1000 | CCN(Cc1cccc(OC)c1-c1cccc(CC(=O)O)c1)C(=O)OCc1ccccc1 [Compound 1-122, {2′-[(Benzyloxycarbonyl-ethyl-amino)-methyl]-6′-methoxy-biphenyl-3-yl}-acetic acid]
10 | < 300 | < 0.3 | 300 to 1000 | CCN(Cc1cc(C(F)(F)F)ccc1-c1cc(F)cc(CC(=O)O)c1)C(=O)OCc1ccccc1 [Compound 1-126, {2′-[(Benzyloxycarbonyl-ethyl-amino)-methyl]-5-fluoro-4′-trifluoromethyl-biphenyl-3-yl}-acetic acid]
11 | < 300 | < 0.3 | 1000 to 30000 | COC(=O)N(CCc1ccccc1)Cc1cc(C(F)(F)F)ccc1-c1cc(CC(=O)O)ccc1OC [Compound 1-25, {6-Methoxy-2′-[(methoxycarbonyl-phenethyl-amino)-methyl]-4′-trifluoromethyl-biphenyl-3-yl}-acetic acid]
12 | < 300 | < 0.3 | 1000 to 30000 | CCN(Cc1cc(C(F)(F)F)ccc1-c1cc(CC(=O)O)ccc1OC)/C(=N/C#N)NCc1ccc(OC)cc1 [Compound 1-114, {2′-[N′-Cyano-N-ethyl-N″-(4-methoxy-benzyl)-guanidinomethyl]-6-methoxy-4′-trifluoromethyl-biphenyl-3-yl}-acetic acid]
13 | < 300 | < 0.3 | 1000 to 30000 | CCN(Cc1cc(C(F)(F)F)ccc1-c1ccc(OC)c(CC(=O)O)c1)C(=O)OCc1ccccc1 [Compound 1-107, {2′-[(Benzyloxycarbonyl-ethyl-amino)-methyl]-4-methoxy-4′-trifluoromethyl-biphenyl-3-yl}-acetic acid]
14 | < 300 | < 0.3 | 1000 to 30000 | COCCN(Cc1cc(C(F)(F)F)ccc1-c1cc(CC(=O)O)ccc1OC)C(C)=O [Compound 1-6, (2′-{[Acetyl-(2-methoxy-ethyl)-amino]-methyl}-6-methoxy-4′-trifluoromethyl-biphenyl-3-yl)-acetic acid]
15 | < 300 | < 0.3 | 1000 to 30000 | CCN(Cc1cc(C(F)(F)F)ccc1-c1cc(CC(=O)O)ccc1OCC1CC1)C(=O)OCc1ccccc1 [Compound 1-130]
16 | 300 to 1000 | 0.3 to 1 | < 300 | COc1ccc(CC(=O)O)cc1-c1ccc(C(F)(F)F)cc1CN(C(C)=O)[C@@H]1CCc2ccccc21 [Compound 1-13, {2′-[((R)-Acetyl-indan-1-yl-amino)-methyl]-6-methoxy-4′-trifluoromethyl-biphenyl-3-yl}-acetic acid]
17 | < 300 | < 0.3 | 1000 to 30000 | CCN(Cc1cc(C(F)(F)F)ccc1-c1cc(CC(=O)O)ccc1OC)C(=O)CSc1ccccc1 [Compound 1-117, (2′-{[Ethyl-(2-phenylsulfanyl-acetyl)-amino]-methyl}-6-methoxy-4′-trifluoromethyl-biphenyl-3-yl)-acetic acid]
18 | < 300 | < 0.3 | 1000 to 30000 | CCN(Cc1cc(C(F)(F)F)ccc1-c1cc(CC(=O)O)ccc1OC)C(=O)Nc1ccccc1 [Compound 1-121, [2′-(1-Ethyl-3-phenyl-ureidomethyl)-6-methoxy-4′-trifluoromethyl-biphenyl-3-yl]-acetic acid]
19 | 300 to 1000 | 0.3 to 1 | 1000 to 30000 | COc1ccc(CC(=O)O)cc1-c1ccc(C(F)(F)F)cc1CN(CC(N)=O)C(C)=O [Compound 1-9, {2′-[(Acetyl-carbamoylmethyl-amino)-methyl]-6-methoxy-4′-trifluoromethyl-biphenyl-3-yl}-acetic acid]
20 | < 300 | < 0.3 | 300 to 1000 | CCN(Cc1cc(C(F)(F)F)ccc1-c1ccc(F)c(CC(=O)O)c1)C(=O)OCc1ccccc1 [Compound 1-127, {2′-[(Benzyloxycarbonyl-ethyl-amino)-methyl]-4-fluoro-4′-trifluoromethyl-biphenyl-3-yl}-acetic acid]
21 | < 300 | 0.3 to 1 | 1000 to 30000 | CCN(Cc1cc(C(F)(F)F)ccc1-c1cc(CC(=O)O)ccc1OC)C(=O)NC#N [Compound 1-99, [2′-(3-Cyano-1-ethyl-ureidomethyl)-6-methoxy-4′-trifluoromethyl-biphenyl-3-yl]-acetic acid]
22 | < 300 | < 0.3 | 1000 to 30000 | CCN(Cc1cc(C(F)(F)F)ccc1-c1cc(CC(=O)O)cc(C(F)(F)F)c1)C(=O)OCc1ccccc1 [Compound 1-109, {2′-[(Benzyloxycarbonyl-ethyl-amino)-methyl]-5,4′-bis-trifluoromethyl-biphenyl-3-yl}-acetic acid]
